# Test results reported in US20240392302A1, “METHOD FOR DETECTING AND QUANTIFYING RNA” (FLUORESCENCE DIAGNOSIS (SHANGHAI) BIOTECH COMPANY LTD., priority 2021, published 2024).
# Legend:
# [1] = tested on: RNA aptamers; conditions: cited from earlier work
# [2] = N16-1 as a label for RNA extraction and purification; conditions: total RNA of COS-7 cells; eluent vs crushed supernatant, incubated with I-5-14
# Method: In order to detect the application of N16-1 to RNA extraction and purification, the pCDNA3.1/hygro(+)-ACTB-N16-1 recombinant plasmids in Example 13 were transfected into COS-7 cells, cells were collected 24 h later, and total RNA of cells was extracted by using Eastep Super total RNA extraction kit (Promega). The extracted total RNA dissolved in a buffer solution having a pH value of 7.4 and containing 40 mM of HEPES, 125 mM of KCl and 5 mM of MgCl2, and was incubated at 70° C. for 10 min, and then was placed at room temperature for more than 30 min.
# 500 μL of Activated Thiol Sepharose 4B (GE Healthcare) was taken and was washed twice with 500 μL of PBS, and PBS containing 10 mM of TCEP (Sigma) was added for incubation at room temperature for 1 h. 500 μL of PBS was used for cleaning twice, I-5-14 fluorophore molecules (Mal-I-5-14) containing maleic amide were added for reaction at room temperature for 30 min, and then 500 μL of PBS was used for cleaning for three times. […]
# With crushed supernatant of blank cells as control, the fluorescence of the crushed supernatant of cells incubated with fluorophore I-5-14, and that of the eluent after final high temperature elution incubated with fluorophore I-5-14 were respectively detected.
Molecule,fluorescence enhancement multiple [1],enrichment of RNA on Mal-I-5-14 microbeads [2]
"CN(C)c1ccc(C(=C2C=CC(=[N+](C)C)C=C2)c2ccccc2)cc1 [MG, malachite green]",2360,–
"ACTB-N16-1: ACTB-N16-1 chimeric RNA, SEQ ID NO: 13 (nucleic acid) ANGGANGANGANANCGCCGCGCNCGNCGNCGACAACGGCNCCGGCANGNGCAAGGCCGGCNNCGCGGGCGACGANGCCCCCCGGGCCGNCNNCCCCNCCANCGNGGGGCGCCCCAGGCACCAGGGCGNGANGGNGGGCANGGGNCAGAAGGANNCCNANGNGGGCGACGAGGCCCAGAGCAAGAGAGGCANCCNCACCCNGAAGNACCCCANCGAGCACGGCANCGNCACCAACNGGGACGACANGGAGAAAANCNGGCACCACACCNNCNACAANGAGCNGCGNGNGGCNCCCGAGGAGCACCCCGNGCNGCNGACCGAGGCCCCCCNGAACCCCAAGGCCAACCGCGAGAAGANGACCCAGANCANGNNNGAGACCNNCAACACCCCAGCCANGNACGNNGCNANCCAGGCNGNGCNANCCCNGNACGCCNCNGGCCGNACCACNGGCANCGNGANGGACNCCGGNGACGGGGNCACCCACACNGNGCCCANCNACGAGGGGNANGCCCNCCCCCANGCCANCCNGCGNCNGGACCNGGCNGGCCGGGACCNGACNGACNACCNCANGAAGANCCNCACCGAGCGCGGCNACAGCNNCACCACCACGGCCGAGCGGGAAANCGNGCGNGACANNAAGGAGAAGCNGNGCNACGNCGCCCNGGACNNCGAGCAAGAGANGGCCACGGCNGCNNCCAGCNCCNCCCNGGAGAAGAGCNACGAGCNGCCNGACGGCCAGGNCANCACCANNGGCAANGAGCGGNNCCGCNGCCCNGAGGCACNCNNCCAGCCNNCCNNCCNGGGCANGGAGNCCNGNGGCANCCACGAAACNACCNNCAACNCCANCANGAAGNGNGACGNGGACANCCGCAAAGACCNGNACGCCAACACAGNGCNGNCNGGCGGCACCACCANGNACCCNGGCANNGCCGACAGGANGCAGAAGGAGANCACNGCCCNGGCACCCAGCACAANGAAGANCAAGANCANNGCNCCNCCNGAGCGCAAGNACNCCGNGNGGANCGGCGGCNCCANCCNGGCCNCGCNGNCCACCNNCCAGCAGANGNGGANCAGCAAGCAGGAGNANGACGAGNCCGGCCCCNCCANCGNCCACCGCAAANGCNNCNAGCNCGAGGCCGCGGGCNCCAGGNGCNGCNNCGGCAGGNAACGGACNNAGANCCACNGNACGCCCGCGGC",–,well enriched
